Experimental data published in patent US20040105860A1, “Cell modulation using a cytoskeletal protein” (priority 2002, published 2004).
Values belong to the molecule of their own block, whether it stands above or below them.

Assays:
cyclin A mRNA = test: Ribonuclease protection assay (RPA) of cyclin A mRNA expression in EC; format: cell-based, Bovine; details: pre-treatment of EC with Y27632
Description: FIGS. 1A-D are explained in more detail as follows. Synchronized ECs were serum stimulated in the presence or absence of TNF for indicated times. Total cellular RNA was isolated and was analyzed by RPA for cyclin A, cyclin B and cyclin D1 expression. A representative autoradiograph is shown (FIG. 1A). mRNA expression of cyclins was corrected to that of GAPDH and quantified by densitometric analysis (FIGS. 1B-D). Data represent average of 3 similar experiments.
FIGS. 12A-C are explained in more detail as follows. (FIG. 12A) Representative PCR gel photograph showing amplification of 200 bp cyclin A promoter emcompassing CHR elements from ant-ezrin antibody immunoprecipitated chromatin. (FIG. 12B) BAECs co-transfected with cyclin A promoter-reporter construct and either wt or dnEzrin constructs and cultured in presence or absence of TNF for 24 h before were analyzed for luciferase activity. Bar graph represents average promoter activity from 3 similar experiments (*p<0.01). (FIG. 12C) Total RNA from empty vector wt or dnEzrin transfected cells under control or TNF-treatment conditions was evaluated for cyclin A mRNA expression by ribonuclease protection assays. Representative autoradiograph is shown.
3. […]

[1] = system: CDE-CHR elements of the cyclin A promoter; test: EMSA of EC nuclear extracts with CDE-CHR / CHR oligonucleotides; format: cell-based, Bovine
EC proliferation = test: Thymidine uptake assay, EC proliferation; format: cell-based, Bovine
Description: Having documented TNF-induced nuclear translocation and the ability of ezrin to bind to cyclin A CHR elements, the functional consequences of TNF-mediated ezrin modulation in EC was determined. To evaluate the effect of ezrin over-expression in the presence of TNF on cell proliferation, EC were transiently transfected with either wtEzrin or dnEzrin expression vectors. Cells were treated or not with TNF and BrdU (50 μg/mL) was added to all cultures for 6 hours. […] Tritiated thymidine uptake assays were performed as an independent measure of cell proliferation in similarly transfected and treated cells and corroborated the findings of BrdU incorporation (FIG. 11C).
FIGS. 11A-E are explained in more detail as follows. Quiescent BAECs transiently transfected with empty vector, wild type and dominant negative ezrin were cultured in the absence (control) or presence of 20 ng/mL TNF for 24 hrs. Cells were labeled with BrdU (50 μg/mL) for last 6 hrs of culture. […] BrdU positive cells were counted in at least 6 different visual fields. […]
To provide further evidence that the improvement in EC function attained by inhibition of ROCK-2 was mediated by ezrin, we performed rescue experiments. EC transiently transfected with wtEzrin and treated with TNF were co-treated with increasing doses of Y27632 and cell proliferation was determined by thymidine incorporation.

RhoA kinase (ROCK-2) = RhoA kinase (ROCK-2) (Bos taurus, UniProt Q28021); test: Western blot for ROCK-2 in EC lysates; format: cell-based, Bovine; details: co-treatment with Y27632 20 micromolar at the time of TNF exposure
ezrin phosphorylation = test: Western blot for phospho-ezrin in EC lysates; format: cell-based, Bovine; details: Y27632 20 μM, all experimental time points
cyclin A CHR elements = test: South-western analysis and UV cross-linking of nuclear proteins with CDE-mCHR or mCDE-CHR probes; format: cell-based, Bovine; details: cycloheximide 5 μg/mL along with TNF
From the text: Nuclear proteins from asynchronously growing BAEC with or without TNF were probed with ^32P-labeled CDE-mCHR or mCDE-CHR oligonucleotides.
To confirm that 84 kDa protein in TNF treated extracts identified in FIGS. 8A-B, does bind to CHR elements, we performed UV cross-linking experiments. EMSA reactions were assembled as before followed by UV cross-linking. The reactions were then boiled in SDS loading buffer and resolved on 12% SDS-PAGE. In reactions probed with CDE-mCHR the 35-kDa protein seen before was observed again (FIGS. 8C-D). In reactions probed with mCDE-CHR probe, the previously identified (FIGS. 8A-B) 39-kDa protein was found cross-linked to oligonucleotide. Similarly, the 84-kDa protein from TNF treated extract cross-linked with mCDE-CHR probe, further confirming the southwestern results.
FIGS. 8A-E are explained in more detail as follows. FIGS. 8A-B. Representative autoradiograph of south-western analysis. Nuclear proteins from asynchronously growing EC with or with out TNF treatment were size fractionated on a 12% SDS-PAGE gel, transferred to PVDF membrane and renatured. Membranes were then incubated with radio-labeled CDE-mCHR or mCDE-CHR oligonucleotide. Membranes were washed, air dried and autoradiographed. […]

[2] = system: CHR oligonucleotides (cyclin A promoter); test: EMSA of recombinant protein with CHR oligonucleotides; format: binding; details: recombinant protein 1 μg
From the text: Nuclear extracts from control and TNF-treated EC were mixed with biotin-labeled CHR oligonucleotides and the bound proteins were captured on avidin-agarose beads. Eluted proteins from beads were subjected to Western blot analysis for ezrin. […] Specificity of CHR-ezrin binding was further confirmed by EMSA assays using recombinant-ezrin protein (GST-ezrin). […] We next evaluated the effect of TNF-induced ezrin binding to cyclin A-CHR by dominant-negative ezrin over-expression. EC were transiently transfected with wild-type (wtEzrin) and dominant negative (dnEzrin) ezrin expression vector. […] That TNF-induced modulation of ezrin up-regulates CHR-binding activity was further evident from ezrin immunodepletion experiments. Endogenous ezrin was immunodepleted from control and TNF-treated nuclear extracts by treating extracts with anti-ezrin antibodies over 5 rounds. Immunodepleted extracts were then analyzed by EMSA for CHR-binding activity.
FIGS. 9A-D are explained in more detail as follows. […] Eluted proteins from beads were analyzed for ezrin protein in western blots. […] (FIG. 9C) Nuclear extracts from control and TNF-treated BAECs, transfected with wild type or dominant negative ezrin, were evaluated CHR binding activity in EMSAs. […] Depleted extracts alone or depleted extracts from TNF treated cells reconstituted with GST-ezrin were then analyzed for CHR binding activity. […]

Sequence of RhoA kinase (ROCK-2) (Q28021 whole entry): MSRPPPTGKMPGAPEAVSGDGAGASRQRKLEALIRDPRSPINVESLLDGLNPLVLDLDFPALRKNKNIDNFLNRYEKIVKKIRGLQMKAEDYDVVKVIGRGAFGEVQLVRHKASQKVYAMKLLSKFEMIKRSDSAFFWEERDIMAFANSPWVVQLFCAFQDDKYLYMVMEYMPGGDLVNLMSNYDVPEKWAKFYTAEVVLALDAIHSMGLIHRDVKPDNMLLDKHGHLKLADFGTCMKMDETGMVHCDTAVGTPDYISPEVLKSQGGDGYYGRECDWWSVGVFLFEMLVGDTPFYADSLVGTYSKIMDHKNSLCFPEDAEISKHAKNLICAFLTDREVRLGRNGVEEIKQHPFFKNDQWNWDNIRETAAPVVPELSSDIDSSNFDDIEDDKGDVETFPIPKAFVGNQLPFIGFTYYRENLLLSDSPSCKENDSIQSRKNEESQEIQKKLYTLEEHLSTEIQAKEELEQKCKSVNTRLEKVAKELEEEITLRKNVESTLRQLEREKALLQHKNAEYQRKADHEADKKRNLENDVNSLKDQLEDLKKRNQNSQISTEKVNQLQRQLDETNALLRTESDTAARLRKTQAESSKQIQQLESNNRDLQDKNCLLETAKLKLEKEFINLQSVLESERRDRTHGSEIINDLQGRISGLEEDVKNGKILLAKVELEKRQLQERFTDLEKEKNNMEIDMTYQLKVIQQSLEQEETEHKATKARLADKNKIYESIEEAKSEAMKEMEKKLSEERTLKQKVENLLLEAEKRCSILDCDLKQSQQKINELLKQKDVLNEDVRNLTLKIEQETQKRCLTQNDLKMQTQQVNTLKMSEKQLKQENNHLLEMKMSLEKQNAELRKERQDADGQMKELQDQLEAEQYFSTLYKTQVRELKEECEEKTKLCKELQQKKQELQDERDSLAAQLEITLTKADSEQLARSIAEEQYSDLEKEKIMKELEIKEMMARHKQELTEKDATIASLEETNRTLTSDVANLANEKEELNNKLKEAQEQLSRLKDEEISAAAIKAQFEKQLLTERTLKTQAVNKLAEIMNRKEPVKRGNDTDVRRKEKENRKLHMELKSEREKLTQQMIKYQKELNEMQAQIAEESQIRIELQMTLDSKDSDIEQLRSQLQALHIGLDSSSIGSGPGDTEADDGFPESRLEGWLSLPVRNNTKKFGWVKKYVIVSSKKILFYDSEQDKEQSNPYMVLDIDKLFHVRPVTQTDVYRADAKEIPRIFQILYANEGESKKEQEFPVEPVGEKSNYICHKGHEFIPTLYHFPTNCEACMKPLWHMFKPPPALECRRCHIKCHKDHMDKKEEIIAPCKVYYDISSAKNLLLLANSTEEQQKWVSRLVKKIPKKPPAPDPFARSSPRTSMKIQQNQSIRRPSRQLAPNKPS

TNF-induced CHR binding activity ([1]; nuclear extracts from EC co-treated with TNF and Y27632): significantly reduced
ROCK-2 induction by TNF (RhoA kinase (ROCK-2)): completely abolished
Molecule: C[C@@H](N)[C@H]1CC[C@H](C(=O)Nc2ccncc2)CC1 [Y27632]
TNF-mediated inhibition of cyclin A mRNA expression (cyclin A mRNA): reversed
ezrin/TNF mediated inhibition of EC proliferation (EC proliferation; EC transfected with wtEzrin, treated with TNF, increasing doses of Y27632): dose dependently reversed
inhibitory effect of TNF on EC proliferation (EC proliferation; treatment of EC with Y27632 in the presence of TNF): partially abrogated
TNF-induced ezrin phosphorylation (ezrin phosphorylation): completely inhibited

Molecule: C[C@@H]1C[C@@H]([C@H](O)CC2CC(=O)NC(=O)C2)C(=O)[C@@H](C)C1 [cycloheximide]
induction of 84-kDa protein by TNF (cyclin A CHR elements): failed to induce the protein

CHR-binding activity of ezrin-immunodepleted TNF-extract ([1]; recombinant ezrin added back to the depleted TNF-extract): significantly increased
Molecule: Recombinant ezrin: Recombinant human ezrin protein (GST-ezrin)
complex formation with CHR oligonucleotides [2]: formed complex

B1: recombinant-DP1 protein: control recombinant-DP1 protein used in EMSA (protein, UniProt Q14186 1-410, looked up)
Transcription factor Dp-1: MAKDAGLIEANGELKVFIDQNLSPGKGVVSLVAVHPSTVNPLGKQLLPKTFGQSNVNIAQQVVIGTPQRPAASNTLVVGSPHTPSTHFASQNQPSDSSPWSAGKRNRKGEKNGKGLRHFSMKVCEKVQRKGTTSYNEVADELVAEFSAADNHILPNESAYDQKNIRRRVYDALNVLMAMNIISKEKKEIKWIGLPTNSAQECQNLEVERQRRLERIKQKQSQLQELILQQIAFKNLVQRNRHAEQQASRPPPPNSVIHLPFIIVNTSKKTVIDCSISNDKFEYLFNFDNTFEIHDDIEVLKRMGMACGLESGSCSAEDLKMARSLVPKALEPYVTEMAQGTVGGVFITTAGSTSNGTRFSASDLTNGADGMLATSSNGSQYSGSRVETPVSYVGEDDEEDDDFNENDEDD
complex formation with CHR oligonucleotides [2]: did not form the complex
